Legend:
[1] = tested on: REF, 3.7, 4R, 5R and REF-GG cells; experiment: Apoptosis determination after 10 Gray irradiation (propidium iodide); format: cell-based, rat
Method: 3×10^3 cells/well in 24-well plates were allowed to attach for 12 hours and were then treated with medium containing FTI-277 in DMSO or an equivalent volume of DMSO without inhibitor. Twenty four hours after irradiation with 10 Gray using the irradiator described above, both adherent and non-adherent cells were harvested. Cells were stained with propidium iodide (Muschel et al., 1995, Cancer Res. 55:995-998). A minimum of three independent fields of 100 cells were counted for each sample. Scoring of samples was performed in a double blind manner.

[2] = tested on: H-ras^v12; experiment: Western blot of H-ras farnesylation in H-ras transformed REF cells (3.7, 4R, 5R); format: cell-based, rat
Description: (§1) The oncogene-transfected cells used in this study were all derived from early passage rat embryo fibroblast (REF) by transfection with the pEJ plasmid containing the H-ras gene isolated from the EJ bladder carcinoma. This vector was introduced by calcium phosphate DNA transfer into primary REF, either alone or together with the pMC29 vector containing v-myc. One clone containing both the introduced H-ras gene and the v-myc genes is 3.7 (McKenna et al., 1990, Cancer Res. 50:97-102). 4R and 5R cells were obtained as rare transformants after transfection with the pEJ plasmid alone (McKenna et al., 1993, supra). MR4 cells were immortalized by transfection with an expression vector comprising v-myc linked to a neomycin-resistant selectable marker (McKenna et al., 1991, Radiat. Res. 125:283-287). REF-GG cells were obtained by transforming REF cells with a chimeric H-ras(v12) in which the CAAX motif is CVLL. All cell lines were mycoplasma free.
Cells were lysed in culture dishes with 1 x reducing Laemmli sample buffer. Samples were boiled, sheared and clarified by centrifugation at 14,000 rpm in a microfuge before storage at −20° C. Samples containing equal amounts of protein were separated on a 12% SDS polyacrylamide gel and electrophoretically transferred to nitrocellulose membranes. Membranes were blocked for 1-2 hours in PBS containing 0.1% Tween-20 and 5% powdered milk before antibody addition. Membranes were probed with monoclonal pan-ras antibody AB-4 (Oncogene Science, Uniondale, N.Y.) at a concentration of 0.5 μg/ml, or with monoclonal H-ras antibody LA069 (1:5000 dilution; Quality Biotech, Camden, N.J.). Detection of protein was accomplished using the ECL chemiluminescence kit (Amersham, Arlington Heights, Ill.). Images were digitized using an Arcus II scanner, and figures were assembled using Adobe Photoshop 3.0.
Transformed REF cells derived from the R5 cell line were treated with 5 μm FTI-277 to establish a time course for the accumulation of unfarnesylated H-ras. Prenylated forms of ras migrate more rapidly than unprenylated ras on SDSpolyacrylamide gels (Gutierrez et al., 1989, EMBO J. 8:1093-1098; Farh et al., 1995, Arch. Biochem. Biophys. 18:113-121). This shift in motility was used to assess the prenylation status of H-ras after farnesyltransferase inhibitor treatment.

[3] = tested on: H-ras^v12 CVLL; experiment: Western blot of prenylation of chimeric H-ras in REF-GG cells; format: cell-based, rat; details: up to 10 μM
Description: as §1
Cells were lysed in culture dishes with 1 x reducing Laemmli sample buffer. Samples were boiled, sheared and clarified by centrifugation at 14,000 rpm in a microfuge before storage at −20° C. Samples containing equal amounts of protein were separated on a 12% SDS polyacrylamide gel and electrophoretically transferred to nitrocellulose membranes. […]

[4] = tested on: murine prostate tumor cells cultured from a metastic lung nodule; experiment: Surviving fraction at 2 Gray, murine prostate tumor cells; format: cell-based, mouse; details: 5 μM FTI-277
Method: FIG. 14C is a series of graphs depicting the effect of 5 μM FTI-277 and 2 Gray irradiation on murine prostate tumor cells cultured from a metastic lung nodule. Cells were referred at 24 hours following irradiation in order to dilute the concentration of the inhibitor to 0.5 μM. The surviving cell fraction was assessed as described in FIG. 14B. The correlation coefficient for linear regression analysis (r^2) was greater than 0.95 in all cases.

[5] = tested on: H-ras; experiment: H-ras prenylation in human colon carcinomas grown in nude mice; format: in vivo, mouse; details: SW480 and LoVo tumors in nude mice, two intraperitoneal injections of 50 mg/kg
Method: Expression of H-ras was detected by Western blot analysis using anti-H-ras monoclonal antibody of lysates of the human colon adenocarcinomas, SW480 and LoVo, grown in nude mice. Lysates were obtained from tumors excised from a vehicle (DMSO) treated mouse (Lane 1) and mice treated twice with intraperitoneal injections of 50 mg/kg of FTI-277 18 hours after treatment was initiated (Lanes 2 and 3). Lane 1 and 2: SW480, Lane 3: LoVo. The arrow denotes the migration of unfarnesylated H-ras.
To examine the effectiveness of prenylation inhibitors in vivo in an animals, both rodent and human tumor responses to these inhibitors were examined in tumor grafts growing on nude mice. The protocols described in Hoffinan (1992, Curr, Perspect. on Molec. & Cell. Oncol. 1:311-326) were followed to establish and grow tumors in nude mice.
To perform the assay, tumors were implanted and allowed to grow to approximately 125 mm^3. Mice having these tumors were then administered 50 mg/kg FTI-277 by intraperitoneal injection. Controls included mice which were injected with an equal volume of drug-free carrier solution. Two injections were given to each mouse, one at 18 hours and a second at 5 hours prior to sacrificing each mouse. The tumor ras prenylation status of the mice was subsequently assessed as described herein.

[6] = tested on: K-ras; experiment: Western blot of K-ras prenylation in SW480 and Panc-1 cells; format: cell-based, human; details: SW480 cells, 48 hours
Method: FIG. 17A is an image of a Western blot depicting inhibition by FTI-277 of K-ras prenylation in human SW480 colon carcinoma cells. SW480 cells were treated with the indicated concentrations of FTI-277 (μM) for 48 hours. Samples were harvested and cell lysates were analyzed by Western blotting using either a H-ras monoclonal antibody (top) or a K-ras monoclonal antibody (bottom). Arrows indicate unfarnesylated ras bands.
FIG. 18A is an image of a Western blot depicting the specific inhibition of K-ras prenylation by combined FTI-277 and GGTI-298 treatment. Log phase cultures of human pancreatic carcinoma cells (Panc-1) and colon carcinoma cells (SW480) were treated with 5 μM FTI and 8 μM GGTI 298 for 48 hours. Cell samples were then harvested and cell lysates were prepared for Western blot analysis using monoclonal antibodies to K-ras and nuclear lamin B. The electrophoretic mobility of the K-ras mutant in SW480 is slower than that of the mutant K-ras in Panc-1 cells.

SMILES: COC(=O)[C@H](CCSC)NC(=O)c1ccc(NC[C@@H](N)CS)cc1-c1ccccc1 [FTI-277]
- inhibitor concentration of maximum effect on apoptosis ([1]; 3.7 cells, 10 Gray): 5 µM
- apoptosis after irradiation ([1]; 3.7 cells, 10 Gray, 2.5 μM): significant increase
- extent of apoptosis induced by irradiation ([1]; 3.7 cells, 10 Gray, 24 hours): greatly enhanced
- irradiation-induced apoptosis ([1]; 4R and 5R cells, 10 Gray): augment irradiation-induced apoptosis
- toxicity of the inhibitor ([1]; 48 hours, highest doses, 3.7 cells only): some toxicity
- extent of apoptosis after irradiation ([1]; REF-GG cells): no significant effect
- baseline level of apoptosis ([1]; REF-GG cells, unirradiated): slightly increased
- apoptosis after irradiation ([1]; untransformed REF cells, 10 Gray): did not result in an increase in apoptosis
- H-ras farnesylation status ([2]; 3.7, 4R and 5R cells, 2.5 to 10 μm, 24 hours): primarily unfarnesylated
- time by which detectable farnesylated H-ras was observed after removal of inhibitor ([2]; 3.7 cells, 5 μm for 30 hours, then removed): ≤ 2 h
- H-ras in the farnesylated form after removal of inhibitor ([2]; 3.7 cells, 6 hours after removal): about 50%
- form of H-ras after removal of inhibitor ([2]; 3.7 cells, 24 hours after removal): majority of the H-ras in the cells was in the farnesylated form
- time by which conversion of H-ras to the slower moving form was observed ([2]; 5R cells, 5 μm FTI-277): ≤ 4 h
- detectable H-ras in the unfarnesylated form ([2]; 5R cells, 5 μm FTI-277, 6-8 hours after addition): approximately 50%
- time to reversal of accumulation of unfarnesylated H-ras after removal of inhibitor ([2]; H-ras transformed REF cells): ≤ 24 h
- mobility of H-ras-CVLL [3]: no change in the mobility of H-ras-CVLL
- survival after 2 Gray irradiation [4]: 0.36
- H-ras migration in tumors [5]: altered H-ras migration
- concentration at which altered migration of K-ras became evident [6]: 30 µM
